Measured values reported in ChEMBL document CHEMBL2029320 (J Med Chem, 2012).
Active and inactive are the calls of the source. The rule behind the calls is not given here. Residues, ends and D or L forms follow the SMILES beside them.

How the values were obtained:
Relaxin-3 receptor 1 [1] = target: T1, Relaxin-3 receptor 1 (Homo sapiens, UniProt Q9NSD7); assay: Displacement of europium-labelled H3 relaxin-B chain/INSL-5 chain from RXFP3 expressed in CHO-K1 cells; format: cell-based
T1 sequence (Q9NSD7 whole entry): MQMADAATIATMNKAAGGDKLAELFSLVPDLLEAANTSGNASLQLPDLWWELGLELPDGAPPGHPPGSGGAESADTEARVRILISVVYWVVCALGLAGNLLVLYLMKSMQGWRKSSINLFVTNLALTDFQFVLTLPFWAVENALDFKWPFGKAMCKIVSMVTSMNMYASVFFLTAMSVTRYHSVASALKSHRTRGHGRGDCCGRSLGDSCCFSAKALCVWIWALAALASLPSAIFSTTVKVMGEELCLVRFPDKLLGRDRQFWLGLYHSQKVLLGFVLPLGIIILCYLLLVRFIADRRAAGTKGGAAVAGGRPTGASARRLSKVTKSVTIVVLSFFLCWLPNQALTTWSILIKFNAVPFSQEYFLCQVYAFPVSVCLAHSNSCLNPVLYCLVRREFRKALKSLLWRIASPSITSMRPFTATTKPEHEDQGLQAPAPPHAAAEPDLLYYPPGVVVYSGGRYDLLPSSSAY

Relaxin receptor 1 = target: T2, Relaxin receptor 1 (Homo sapiens, UniProt Q9HBX9); assay: Displacement of europium-labelled H2 relaxin from RXFP1 expressed in HEK-293T cells; format: cell-based
T2 sequence (Q9HBX9 whole entry): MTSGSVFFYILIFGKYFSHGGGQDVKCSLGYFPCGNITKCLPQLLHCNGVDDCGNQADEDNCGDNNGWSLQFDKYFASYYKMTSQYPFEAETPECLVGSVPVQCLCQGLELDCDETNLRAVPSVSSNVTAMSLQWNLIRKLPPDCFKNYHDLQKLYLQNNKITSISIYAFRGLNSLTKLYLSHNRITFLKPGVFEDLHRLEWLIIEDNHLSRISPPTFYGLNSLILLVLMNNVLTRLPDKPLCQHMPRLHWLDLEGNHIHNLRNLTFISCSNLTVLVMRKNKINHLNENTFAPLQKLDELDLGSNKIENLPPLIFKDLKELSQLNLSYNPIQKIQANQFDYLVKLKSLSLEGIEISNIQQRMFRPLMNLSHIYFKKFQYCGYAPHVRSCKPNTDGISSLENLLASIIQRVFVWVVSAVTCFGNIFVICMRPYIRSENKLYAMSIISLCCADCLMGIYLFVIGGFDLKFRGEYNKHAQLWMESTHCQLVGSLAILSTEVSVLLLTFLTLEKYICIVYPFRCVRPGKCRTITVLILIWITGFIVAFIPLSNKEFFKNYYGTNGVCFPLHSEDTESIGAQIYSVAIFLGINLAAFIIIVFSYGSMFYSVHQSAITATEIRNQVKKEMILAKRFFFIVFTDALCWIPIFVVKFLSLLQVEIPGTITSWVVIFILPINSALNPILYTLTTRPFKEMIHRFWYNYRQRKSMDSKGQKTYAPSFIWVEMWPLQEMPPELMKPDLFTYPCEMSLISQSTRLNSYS

Relaxin-3 receptor 2 = Relaxin-3 receptor 2 (Homo sapiens, UniProt Q8TDU9); assay: Agonist activity at RXFP4 expressed in CHO-K1 cells assessed as inhibition of forskolin-induced cAMP accumulation after 6 hrs by beta galactosidase reporter gene assay; format: functional, cell-based
Relaxin-3 receptor 2, sequence (Q8TDU9 whole entry): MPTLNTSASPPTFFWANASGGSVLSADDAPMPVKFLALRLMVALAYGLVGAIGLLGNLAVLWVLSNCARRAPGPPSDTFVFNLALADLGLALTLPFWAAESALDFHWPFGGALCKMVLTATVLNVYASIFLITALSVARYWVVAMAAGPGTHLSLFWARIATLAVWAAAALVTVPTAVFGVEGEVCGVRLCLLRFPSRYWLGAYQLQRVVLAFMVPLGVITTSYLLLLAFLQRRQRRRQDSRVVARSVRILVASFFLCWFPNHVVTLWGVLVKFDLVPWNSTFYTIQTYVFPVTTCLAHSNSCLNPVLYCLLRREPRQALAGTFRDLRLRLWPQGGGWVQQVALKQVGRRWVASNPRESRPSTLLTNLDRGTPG

[2] = target: T3, Relaxin receptor 1 (Homo sapiens) (UniProt Q9HBX9); assay: Activation of RXFP1 expressed in HEK-293T cells assessed as induction of cAMP accumulation after 6 hrs by beta galactosidase reporter gene assay; format: functional, cell-based
T3 sequence (whole entry): T2 sequence (Q9HBX9 whole entry)

Relaxin-3 receptor 1 [3] = target: T1, Relaxin-3 receptor 1; assay: Agonist activity at RXFP3 expressed in CHO-K1 cells assessed as inhibition of forskolin-induced cAMP accumulation after 6 hrs by beta galactosidase reporter gene assay; format: functional, cell-based

Molecule | Ki (Relaxin-3 receptor 1 [1]) [µM] | other results
H-RAAPYGVRLSGREFIRAVIFRSGGSRW-OH | 0.741 | 
H-RAAPYGVRLSGREFIRAVIFTRGGSRW-OH | 3.39 | 
CC[C@H](C)[C@@H]1NC(=O)[C@H](Cc2ccccc2)NC(=O)[C@H](CCC(=O)O)NC(=O)[C@H](CCCNC(=N)N)NC(=O)CNC(=O)[C@@H](NC(=O)[C@H](CC(C)C)NC(=O)[C@H](CCCNC(=N)N)NC(=O)[C@@H](NC(=O)CN)C(C)C)CSSC[C@H](N)C(=O)N[C@@H](CCCCN)C(=O)N[C@@H](Cc2c[nH]c3ccccc23)C(=O)NCC(=O)N[C@@H](C)C(=O)N[C@@H](CO)C(=O)N[C@@H](CCCCN)C(=O)N[C@@H](CO)C(=O)N[C@@H](CCC(=O)O)C(=O)N[C@@H]([C@@H](C)CC)C(=O)N[C@@H](CO)C(=O)N[C@@H](CO)C(=O)N[C@@H](CC(C)C)C(=O)N[C@H](C(=O)O)CSSC[C@@H](C(=O)NCC(=O)NCC(=O)N[C@@H](CO)C(=O)N[C@@H](CCCNC(=N)N)C(=O)N[C@@H](Cc2c[nH]c3ccccc23)C(=O)O)NC(=O)[C@H]([C@@H](C)O)NC(=O)[C@H](Cc2ccccc2)NC(=O)[C@H]([C@@H](C)CC)NC(=O)[C@H](C(C)C)NC(=O)[C@H](C)NC(=O)[C@H](CCCNC(=N)N)NC1=O |  | Ki (Relaxin receptor 1): > 10 µM; IC50 (Relaxin-3 receptor 2): 0.0141 µM; pIC50 [2]: inactive
H-RAAPYGVRLSGREFIRKVIFTSGGSRW-OH | > 10 | 
H-RAAPYGVRLSGREFIRAVIFTSRGSRW-OH | 2.09 | 
H-RAAPYGVRLSGREFIRAVIFTSGGSRW-OH | 2.95 | 
CC[C@H](C)[C@H](NC(=O)[C@H](Cc1ccccc1)NC(=O)[C@H](CCC(=O)O)NC(=O)[C@H](CCCNC(=N)N)NC(=O)CNC(=O)[C@H](CO)NC(=O)[C@H](CC(C)C)NC(=O)[C@H](CCCNC(=N)N)NC(=O)[C@@H](NC(=O)CNC(=O)[C@H](CS)NC(=O)[C@@H]1CCCN1C(=O)[C@H](C)NC(=O)[C@H](C)NC(=O)[C@@H](N)CCCNC(=N)N)C(C)C)C(=O)N[C@@H](CCCNC(=N)N)C(=O)N[C@@H](C)C(=O)N[C@H](C(=O)N[C@H](C(=O)N[C@@H](Cc1ccccc1)C(=O)N[C@@H](CS)C(=O)N[C@@H](CO)C(=O)NCC(=O)NCC(=O)N[C@@H](CO)C(=O)N[C@@H](CCCNC(=N)N)C(=O)N[C@@H](Cc1c[nH]c2ccccc12)C(=O)O)[C@@H](C)CC)C(C)C (H-RAAPCGVRLSGREFIRAVIFCSGGSRW-OH) | > 10 | 
CC[C@H](C)[C@H](NC(=O)[C@@H](NC(=O)[C@H](C)NC(=O)[C@H](CCCN=C(N)N)NC(=O)[C@H](CS)NC(=O)[C@H](Cc1ccccc1)NC(=O)[C@H](CCC(=O)O)NC(=O)[C@H](CCCN=C(N)N)NC(=O)CNC(=O)[C@H](CO)NC(=O)[C@H](CC(C)C)NC(=O)[C@H](CCCN=C(N)N)NC(=O)[C@@H](NC(=O)CNC(=O)[C@H](Cc1ccc(O)cc1)NC(=O)[C@@H]1CCCN1C(=O)[C@H](C)NC(=O)[C@H](C)NC(=O)[C@@H](N)CCCN=C(N)N)C(C)C)C(C)C)C(=O)N[C@@H](Cc1ccccc1)C(=O)N[C@H](C(=O)N[C@@H](CS)C(=O)NCC(=O)NCC(=O)N[C@@H](CO)C(=O)N[C@@H](CCCN=C(N)N)C(=O)N[C@@H](Cc1c[nH]c2ccccc12)C(=O)O)[C@@H](C)O (H-RAAPYGVRLSGREFCRAVIFTCGGSRW-OH) | > 10 | 
CC[C@H](C)[C@@H]1NC(=O)[C@H](Cc2ccccc2)NC(=O)[C@H](CCC(=O)O)NC(=O)[C@H](CCCN=C(N)N)NC(=O)CNC(=O)[C@@H](N)CSSC[C@H](N)C(=O)N[C@@H](CCCCN)C(=O)N[C@@H](Cc2c[nH]c3ccccc23)C(=O)NCC(=O)N[C@@H](C)C(=O)N[C@@H](CO)C(=O)N[C@@H](CCCCN)C(=O)N[C@@H](CO)C(=O)N[C@@H](CCC(=O)O)C(=O)N[C@@H]([C@@H](C)CC)C(=O)N[C@@H](CO)C(=O)N[C@@H](CO)C(=O)N[C@@H](CC(C)C)C(=O)N[C@H](C(=O)O)CSSC[C@@H](C(=O)NCC(=O)NCC(=O)N[C@@H](CO)C(=O)N[C@@H](CCCN=C(N)N)C(=O)N[C@@H](Cc2c[nH]c3ccccc23)C(=O)O)NC(=O)[C@H]([C@@H](C)O)NC(=O)[C@H](Cc2ccccc2)NC(=O)[C@H]([C@@H](C)CC)NC(=O)[C@H](C(C)C)NC(=O)[C@H](C)NC(=O)[C@H](CCCN=C(N)N)NC1=O |  | Ki (Relaxin receptor 1): > 10 µM; IC50 (Relaxin-3 receptor 2): 0.00347 µM
CC[C@H](C)[C@H](NC(=O)[C@H](CS)NC(=O)[C@H](CCC(=O)O)NC(=O)[C@H](CCCN=C(N)N)NC(=O)CNC(=O)[C@H](CS)NC(=O)[C@H](CC(C)C)NC(=O)[C@H](CCCN=C(N)N)NC(=O)[C@@H](NC(=O)CNC(=O)[C@H](Cc1ccc(O)cc1)NC(=O)[C@@H]1CCCN1C(=O)[C@H](C)NC(=O)[C@H](C)NC(=O)[C@@H](N)CCCN=C(N)N)C(C)C)C(=O)N[C@@H](CCCN=C(N)N)C(=O)N[C@@H](C)C(=O)N[C@@H](CS)C(=O)N[C@H](C(=O)N[C@@H](Cc1ccccc1)C(=O)N[C@H](C(=O)N[C@@H](CS)C(=O)NCC(=O)NCC(=O)N[C@@H](CO)C(=O)N[C@@H](CCCN=C(N)N)C(=O)N[C@@H](Cc1c[nH]c2ccccc12)C(=O)O)[C@@H](C)O)[C@@H](C)CC (H-RAAPYGVRLCGRECIRACIFTCGGSRW-OH) | > 10 | 
H-RAAPYGVRLSGREFIRAVIFTSRGGSRW-OH | 2.57 | 
CC[C@H](C)[C@@H]1NC(=O)[C@H](Cc2ccccc2)NC(=O)[C@H](CCC(=O)O)NC(=O)[C@H](CCCNC(=N)N)NC(=O)CNC(=O)[C@@H](N)CSSC[C@H](N)C(=O)N[C@@H](CCCCN)C(=O)N[C@@H](Cc2c[nH]c3ccccc23)C(=O)NCC(=O)N[C@@H](C)C(=O)N[C@@H](CO)C(=O)N[C@@H](CCCCN)C(=O)N[C@@H](CO)C(=O)N[C@@H](CCC(=O)O)C(=O)N[C@@H]([C@@H](C)CC)C(=O)N[C@@H](CO)C(=O)N[C@@H](CO)C(=O)N[C@@H](CC(C)C)C(=O)N[C@H](C(=O)O)CSSC[C@@H](C(=O)NCC(=O)NCC(=O)N[C@@H](CO)C(=O)N[C@@H](CCCNC(=N)N)C(=O)N[C@@H](Cc2c[nH]c3ccccc23)C(=O)O)NC(=O)[C@H]([C@@H](C)O)NC(=O)[C@H](Cc2ccccc2)NC(=O)[C@H]([C@@H](C)CC)NC(=O)[C@H](C(C)C)NC(=O)[C@H](C)NC(=O)[C@H](CCCNC(=N)N)NC1=O |  | pIC50 [2]: inactive
CC[C@H](C)[C@@H]1NC(=O)[C@H](Cc2ccccc2)NC(=O)[C@H](CCC(=O)O)NC(=O)[C@H](CCCN=C(N)N)NC(=O)CNC(=O)[C@@H](NC(=O)[C@H](CC(C)C)NC(=O)[C@@H](N)CCCN=C(N)N)CSSC[C@H](N)C(=O)N[C@@H](CCCCN)C(=O)N[C@@H](Cc2c[nH]c3ccccc23)C(=O)NCC(=O)N[C@@H](C)C(=O)N[C@@H](CO)C(=O)N[C@@H](CCCCN)C(=O)N[C@@H](CO)C(=O)N[C@@H](CCC(=O)O)C(=O)N[C@@H]([C@@H](C)CC)C(=O)N[C@@H](CO)C(=O)N[C@@H](CO)C(=O)N[C@@H](CC(C)C)C(=O)N[C@H](C(=O)O)CSSC[C@@H](C(=O)NCC(=O)NCC(=O)N[C@@H](CO)C(=O)N[C@@H](CCCN=C(N)N)C(=O)N[C@@H](Cc2c[nH]c3ccccc23)C(=O)O)NC(=O)[C@H]([C@@H](C)O)NC(=O)[C@H](Cc2ccccc2)NC(=O)[C@H]([C@@H](C)CC)NC(=O)[C@H](C(C)C)NC(=O)[C@H](C)NC(=O)[C@H](CCCN=C(N)N)NC1=O | 0.112 | IC50 (Relaxin-3 receptor 1 [3]): 0.00513 µM; Ki (Relaxin receptor 1): > 10 µM; IC50 (Relaxin-3 receptor 2): 0.00794 µM
CC[C@H](C)[C@@H]1NC(=O)[C@H](Cc2ccccc2)NC(=O)[C@H](CCC(=O)O)NC(=O)[C@H](CCCNC(=N)N)NC(=O)CNC(=O)[C@@H](NC(=O)[C@H](CC(C)C)NC(=O)[C@@H](N)CCCNC(=N)N)CSSC[C@H](N)C(=O)N[C@@H](CCCCN)C(=O)N[C@@H](Cc2c[nH]c3ccccc23)C(=O)NCC(=O)N[C@@H](C)C(=O)N[C@@H](CO)C(=O)N[C@@H](CCCCN)C(=O)N[C@@H](CO)C(=O)N[C@@H](CCC(=O)O)C(=O)N[C@@H]([C@@H](C)CC)C(=O)N[C@@H](CO)C(=O)N[C@@H](CO)C(=O)N[C@@H](CC(C)C)C(=O)N[C@H](C(=O)O)CSSC[C@@H](C(=O)NCC(=O)NCC(=O)N[C@@H](CO)C(=O)N[C@@H](CCCNC(=N)N)C(=O)N[C@@H](Cc2c[nH]c3ccccc23)C(=O)O)NC(=O)[C@H]([C@@H](C)O)NC(=O)[C@H](Cc2ccccc2)NC(=O)[C@H]([C@@H](C)CC)NC(=O)[C@H](C(C)C)NC(=O)[C@H](C)NC(=O)[C@H](CCCNC(=N)N)NC1=O |  | pIC50 [2]: inactive
